Reference: US20110003017A1, “Method for Preparation of Extract from Angelica Gigas Nakai and Composition Containing the Extract” (AZI Co., Ltd., priority 2007, published 2011)

Experiment: antioxidant effects (electron donating ability) using DPPH
Type: biochemical
Conditions: DPPH radical scavenging, absorbance at 520 nm
Description: The antioxidant effects were determined using 1,1-diphenyl-2-picryl hydrazyl (DPPH). Analysis of the extract using DPPH is performed by the following method.
DPPH having radicals is mostly used for determining radical scavenging performance. DPPH was purchased from Sigma. The following procedures were carried out:
1) 2 ml of 0.1 mM […] (Sigma, D-9132) in ethanol was added to 2 ml of a sample dissolved in ethanol;
2) After mixing the solution for 10 minutes, the mixture was left in a dark place;
3) Absorbance of the resultant product at 520 nm was measured;
4) Calculation of antioxidant efficacy (electron donating ability),
EDA (electron donating ability)=(Cabs−Sabs)/Cabs*100
wherein • Cabs: absorbance of a negative control (which contains ethanol only instead of a sample), • Sabs: absorbance of a sample, and • Positive control: Vitamin E (Fluka, 95240) as a sample.
Antioxidant effects were compared between both extract powders obtained in Examples 1 and 2. Using DPPH analyzed and quantified EDA to determine the antioxidant effects of the extract powder. IC50 means a concentration required for scavenging 50% of radicals and it is determined that the antioxidant effects are enhanced as IC50 value is lowered.

Vitamin E
IC50 (concentration required for scavenging 50% of radicals): 15 µg/mL
